In ChEMBL document CHEMBL2384920, “Ester prodrugs of acyclic nucleoside thiophosphonates compared to phosphonates: synthesis, antiviral activity and decomposition study” (Eur J Med Chem, 2013):
pEC50: −log10 of the molar value. The source made the active and inactive calls. No cut-off for these calls is given here.

Assays:
Human alphaherpesvirus 2 = test: Antiviral activity against Human simplex virus 2 G infected in human HEL cells assessed as reduction of virus-induced cytopathicity measured at day 3 by microscopic analysis; type: functional, organism-based; details: Human alphaherpesvirus 2, strain G, 72 h
[1] = tested on: Human immunodeficiency virus 2; test: Antiviral activity against wild type HIV-2 ROD infected in human CEM cells assessed as inhibition of syncytia formation after 4 days by microscopic analysis; type: functional, organism-based; details: Human immunodeficiency virus 2, ISOLATE ROD, CCRF-CEM, 96 h
Vaccinia virus [2] = test: Antiviral activity against Vaccinia virus infected in human HEL cells assessed as reduction of virus-induced cytopathicity measured at day 3 by microscopic analysis; type: functional, organism-based; details: Orthopoxvirus vaccinia, 72 h
Human alphaherpesvirus 1 [3] = test: Antiviral activity against thymidine kinase-deficient Human simplex virus 1 KOS infected in human HEL cells assessed as reduction of virus-induced cytopathicity measured at day 3 by microscopic analysis; type: functional, organism-based; details: Human alphaherpesvirus 1, KOS, 72 h
Hepatitis B virus = test: Antiviral activity against wild type HBV transfected in human HuH7 cells assessed as reduction of viral DNA level after 7 days by qPCR analysis; type: functional, organism-based; details: Huh-7, 168 h
[4] = Cytotoxicity against mock-infected human CEM cells assessed as growth inhibition; type: cell-based, CCRF-CEM
[5] = tested on: Human immunodeficiency virus 1; test: Antiviral activity against wild type HIV-1 3B infected in human CEM cells assessed as inhibition of syncytia formation after 4 days by microscopic analysis; type: functional, organism-based; details: Human immunodeficiency virus 1, 3B, CCRF-CEM, 96 h
[6] = Prodrug conversion assessed as snake venome phosphodiesterase-mediated phosphonate monoester formation at 5 mM; type: ADME; details: crotalus adamanteus, 5000 µM
[7] = Stability of the compound in RPMI-1640 assessed as half life of first step of hydrolysis; type: physicochemical
[8] = Stability of the compound in DMEM assessed as half life of first step of hydrolysis; type: physicochemical
[9] = Half life of the compound in presence of carboxyesterase; type: physicochemical
Human alphaherpesvirus 1 [10] = test: Antiviral activity against Human simplex virus 1 KOS infected in human HEL cells assessed as reduction of virus-induced cytopathicity measured at day 3 by microscopic analysis; type: functional, organism-based; details: Human alphaherpesvirus 1, KOS, 72 h
[11] = Cytotoxicity against human HEL cells assessed as effect on cell morphology; type: cell-based
[12] = Cytotoxicity against human HuH7 cells assessed as reduction of cell density; type: cell-based, Huh-7
[13] = Prodrug conversion assessed as snake venome phosphodiesterase-mediated thiophosphonate monoester formation at 5 mM; type: ADME; details: crotalus adamanteus, 5000 µM
Vaccinia virus [14] = test: Antiviral activity against Vaccinia virus infected in human HEL cells assessed as reduction of virus-induced cytopathicity at 200 uM measured at day 3 by microscopic analysis; type: functional, organism-based; details: Orthopoxvirus vaccinia
[15] = Prodrug conversion assessed as snake venome phosphodiesterase-mediated PMEA formation at 5 mM; type: ADME; details: crotalus adamanteus, 5000 µM
[16] = Prodrug conversion assessed as snake venome phosphodiesterase-mediated (R)-9-[2-(Thiophosphonomethoxy)propyl]adenine disodium salt formation at 5 mM; type: ADME; details: crotalus adamanteus, 5000 µM
[17] = Prodrug conversion assessed as snake venome phosphodiesterase-mediated PMPA formation at 5 mM; type: ADME; details: crotalus adamanteus, 5000 µM

| SMILES | pEC50 (Human alphaherpesvirus 2) | pEC50 [1] | pEC50 (Vaccinia virus [2]) | pEC50 (Human alphaherpesvirus 1 [3]) | pEC50 (Hepatitis B virus) | CC50 [4] [nM] | pEC50 [5] | pEC50 (Human alphaherpesvirus 1 [10]) | MCC [11] [µM] | CC50 [12] [µM] | other results |
| --- | --- | --- | --- | --- | --- | --- | --- | --- | --- | --- | --- |
| CC(C)(C)C(=O)OCOP(=O)(COCCn1cnc2c(N)ncnc21)OCOC(=O)C(C)(C)C [ADEFOVIR DIPIVOXIL] | 6.70 | 7.21 | 5.40 | 6.70 | 6.08 | 1600 | 7.35 | 6.70 | > 50 | > 25 | Drug metabolism [6]: Active; half-life [7]: 60 min; half-life [8]: 60 min; half-life [9]: > 420 min |
| CC(C)OC(=O)OCOP(=S)(CO[C@H](C)Cn1cnc2c(N)ncnc21)OCOC(=O)OC(C)C | < 4.30 | 6.89 | < 4.30 | < 4.30 | 5.94 | > 25000 | 7.04 | < 4.30 | > 50 | > 25 | Drug metabolism [13]: Active |
| Nc1ncnc2c1ncn2CCOCP(=O)(O)O | – | – | – | – | – | – | – | – | – | – | Activity (Vaccinia virus [14]): inactive |
| Nc1ccn(C[C@@H](CO)OCP(=O)(O)O)c(=O)n1 [CIDOFOVIR] | – | – | – | – | – | – | – | – | > 250 | – | – |
| CC(C)(C)C(=O)OCOP(=O)([O-])COCCn1cnc2c(N)ncnc21.[Na+] | – | – | – | – | – | – | – | – | – | – | Drug metabolism [15]: Active |
| CC(C)(C)C(=O)OCOP(=S)(COCCn1cnc2c(N)ncnc21)OCOC(=O)C(C)(C)C | 5.41 | ≤ 6.70 | 4.54 | 5.41 | 5.84 | 2000 | ≤ 6.70 | 5.41 | > 50 | > 25 | Drug metabolism [13]: Active |
| Nc1ncnc2c1ncn2CCOCP(=O)(O)S (centres undefined) | – | – | – | – | – | – | – | – | – | – | Activity (Vaccinia virus [14]): Active |
| CC(C)OC(=O)OCOP(=O)(CO[C@H](C)Cn1cnc2c(N)ncnc21)OCOC(=O)OC(C)C [TENOFOVIR DISOPROXIL] | 5.24 | 7.89 | < 4.30 | 5.02 | 6.06 | > 25000 | 7.80 | 5.24 | > 50 | > 25 | Drug metabolism [6]: Active; half-life [7]: 60 min; half-life [8]: 60 min |
| CC(C)OC(=O)OCOP([O-])(=S)CO[C@H](C)Cn1cnc2c(N)ncnc21.[Na+] (some centres undefined) | – | – | – | – | – | – | – | – | – | – | Drug metabolism [16]: Active |
| Nc1nc2c(ncn2COCCO)c(=O)[nH]1 [ACYCLOVIR] | – | – | < 3.60 | 4.54 | – | – | – | – | > 250 | – | – |
| CC(C)OC(=O)OCOP(=O)([O-])CO[C@H](C)Cn1cnc2c(N)ncnc21.[Na+] | – | – | – | – | – | – | – | – | – | – | Drug metabolism [17]: Active; half-life [9]: > 420 min |
